Experimental data from patent US8524716B2, “Macrocyclic indoles as hepatitis C virus inhibitors” (priority 2007, dated 2013).
Where two headings read alike, the source gives them in different places.

How the values were obtained:
[1] = from C=CCCNC(=O)Cn1c(-c2ccoc2)c(C2CCCCC2)c2ccc(C(=O)NCCC=C)cc21; rcm bond; Hoveyda-Grubbs 1st generation catalyst; 1,2-dichloroethane; 1.585 mM; 80.0 °C; 15.0 h
HCV NS5B = HCV NS5B (Hepatitis C virus genotype 1b (strain HC-J4), UniProt O92972); test: biochemical; format: biochemical; details: 100 nM enzyme, [3H]GTP incorporation, 2 h at 25° C.; read-out: IC50 (μM) Enzymatic assay
Method: The cDNA encoding NS5B amino acid 1-570 (HC-J4, genotype 1b, pCV-J4L6S, genebank accession number AF054247) was subcloned into the Nhe I and Xho I restriction sites of pET-21b. Expression of the subsequent His-tagged C-terminal 21 amino acid deleted NS5B was performed as follows:
The NS5B expression construct was transformed into E. coli BL21(DE3) (Novagen, Madison, Wis.). Five milliliters of LB-medium supplemented with ampicillin (50 μg/mL) was inoculated with one colony. When the pre-culture reached an optical density of 0.6 measured at 600 nm, it was transferred to fresh LB-medium supplemented with ampicillin, at a ratio of 1:200. Cells were grown to an optical density at 600 nm of 0.6, after which the expression cultures were shifted to a growth temperature of 20° C. following induction with isopropyl-1-thio-β-D-galactopyranoside and MgCl2 at a final concentration of 0.4 mM and 10 μM, respectively. After ten hours of induction, cells were harvested by centrifugation and resuspended in 20 mM Tris-HCl, pH 7.5, 300 mM NaCl, 10% glycerol, 0.1% NP40, 4 mM MgCl2, 5 mM DTT supplemented with EDTA-free Complete Protease Inhibitor (Roche, Basel, Switzerland). Cell suspensions were disrupted by sonication and incubated with 10-15 mg/L of DNase I (Roche, Basel, Switzerland) for 30 minutes. Cell debris was removed through ultracentrifugation at 30,000×g for 1 hour and clarified cell lysate was flash frozen and stored at −80° C. prior to purification.
Clarified cell lysate was thawed and subsequently loaded onto a 5 mL pre-packed HisTrap FF column equilibrated with 25 mM HEPES, pH 7.5, 500 mM NaCl, 10% glycerol and 5 mM DTT. Proteins were eluted with 500 mM imidazole at a flow rate of 1 mL/min. Fractions containing the protein of interest were applied onto a pre-packed 26/10 HiPrep Desalting Column equilibrated with 25 mM HEPES, pH 7.5, 150 mM NaCl, 10% glycerol and 5 mM DTT. The buffer-exchanged NS5B peak was then applied onto a 20 mL Poly-U Sepharose column. Protein was eluted with an increasing salt gradient and fractions collected. Protein purity was assessed on Nu-PAGE pre-cast gels (Invitrogen, Carlsbad, Calif.). Purified NS5B samples were concentrated using Centri-Prep concentrators (Millipore, Billerica, Mass., USA) and protein concentrations were determined by Bradford assay (Pierce, Rockford, Ill., USA).
Measurement of HCV NS5B polymerization activity was performed by evaluating the amount of radio labeled GTP incorporated by the enzyme in a newly synthesized RNA using heteropolymeric RNA template/primer. The high-throughput RNA dependent RNA polymerase (RdRp) assay was carried out in 384-well plates using 100 nM enzyme, 300 nM 5′-biotinylated oligo(rG13)/poly(rC) primer-template, 600 nM of GTP, and 0.1 μCi of [^3H]GTP in 25 mM Tris-HCl, pH 7.5, 5 mM MgCl2, 25 mM KCl, 17 mM NaCl and 3 mM of dithiothreitol (DTT). Test compounds were dissolved in DMSO. The test compounds were added to the preformed polymerase-template complex, and incubated at room temperature for 15 min before the addition of nucleoside triphosphates (NTP). The 30 μl reaction was terminated after 2 h at 25° C. upon addition of 30 μl A PVT-SPA beads (Amersham Biosciences RPNQ0009, 5 mg/ml in 0.5 M EDTA).

[2] = system: HCV replicons (NS3-NS5B regions of HCV type 1b) in Huh-Luc cells; test: HCV replicon assay in Huh-7 luc/neo (Huh-Luc) cells, luciferase readout; format: cell-based; details: Hepatitis C virus, Huh-7, 72 h, three days incubation, luciferase activity
Excerpt: The compounds of formula (I) were examined for activity in the inhibition of HCV RNA replication in a cellular assay. […] The cellular assay was based on a bicistronic expression construct, as described by Lohmann et al. (1999) Science vol. 285 pp. 110-113 with modifications described by Krieger et al. (2001) Journal of Virology 75: 4614-4624, in a multi-target screening strategy. In essence, the method was as follows.
The assay utilized the stably transfected cell line Huh-7 luc/neo (hereafter referred to as Huh-Luc). This cell line harbors an RNA encoding a bicistronic expression construct comprising the wild type NS3-NS5B regions of HCV type 1b translated from an Internal Ribosome Entry Site (IRES) from encephalomyocarditis virus (EMCV), preceded by a reporter portion (firefly luciferase), and a selectable marker portion (neo^R, neomycine phosphotransferase). The construct is bordered by 5′ and 3′ NTRs (non-translated regions) from HCV type 1b. Continued culture of the replicon cells in the presence of G418 (neo^R) is dependent on the replication of the HCV RNA. The stably transfected replicon cells that express HCV RNA, which replicates autonomously and to high levels, encoding inter alia luciferase, were used for screening the antiviral compounds.
The replicon cells were plated in 384 well plates in the presence of the test and control compounds which were added in various concentrations. Following an incubation of three days, HCV replication was measured by assaying luciferase activity (using standard luciferase assay substrates and reagents and a Perkin Elmer ViewLux™ ultraHTS microplate imager). […] The inhibitory activity of the compound on luciferase activity was monitored on the Huh-Luc cells, enabling a dose-response curve for each test compound. EC50 values were then calculated, which value represents the amount of the compound required to decrease the level of detected luciferase activity by 50%, or more specifically, the ability of the genetically linked HCV replicon RNA to replicate.

Sequence of HCV NS5B (O92972 2420-3010 limits assumed): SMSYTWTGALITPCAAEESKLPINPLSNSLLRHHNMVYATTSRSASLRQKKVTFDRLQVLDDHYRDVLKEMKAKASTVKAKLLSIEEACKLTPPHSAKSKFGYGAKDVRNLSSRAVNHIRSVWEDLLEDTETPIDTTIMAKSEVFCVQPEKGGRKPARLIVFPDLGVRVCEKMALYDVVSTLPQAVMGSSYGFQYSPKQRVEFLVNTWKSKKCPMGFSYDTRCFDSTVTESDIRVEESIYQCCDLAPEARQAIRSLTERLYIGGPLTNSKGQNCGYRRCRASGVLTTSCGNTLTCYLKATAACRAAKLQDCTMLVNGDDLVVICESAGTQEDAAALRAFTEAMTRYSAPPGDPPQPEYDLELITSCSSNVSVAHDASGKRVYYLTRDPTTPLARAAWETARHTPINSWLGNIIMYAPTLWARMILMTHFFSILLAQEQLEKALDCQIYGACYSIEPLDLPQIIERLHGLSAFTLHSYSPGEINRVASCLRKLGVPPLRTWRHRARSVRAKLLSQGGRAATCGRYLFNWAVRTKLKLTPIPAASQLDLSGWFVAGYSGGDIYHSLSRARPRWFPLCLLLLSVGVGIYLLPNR

Structure (SMILES) | IC50 (HCV NS5B) [µM] | EC50 [2] [µM] | further results
CS(=O)(=O)N1CCN(c2ccc([N+](=O)[O-])cc2COc2ccc(-c3c(C4CCCCC4)c4ccc5cc4n3CC(=O)NCCC=CCCNC5=O)cc2)CC1 |  |  | ring closure, isolated yield (rcm bond, 15-membered ring, Hoveyda-Grubbs 1st gen (2 portions), DCE, 80.0 °C): 70%
O=C1Cn2c(-c3ccc(OCc4cc(N5CCCC5=O)ccc4N4CCOCC4)cc3)c(C3CCCCC3)c3ccc(cc32)C(=O)NCCC=CCCN1 |  |  | ring closure, isolated yield (from C=CCCNC(=O)Cn1c(-c2ccc(OCc3cc(N4CCCC4=O)ccc3N3CCOCC3)cc2)c(C2CCCCC2)c2ccc(C(=O)NCCC=C)cc21, rcm bond, 15-membered ring, Hoveyda-Grubbs 1st gen (2 portions), DCE, 80.0 °C): 25%
O=C1Cn2c(-c3ccoc3)c(C3CCCCC3)c3ccc(cc32)C(=O)NCCC=CCCN1 |  |  | ring closure, yield of all isomers [1]: 22%
CS(=O)(=O)N1CCN(c2ccc(N3CCCC3=O)cc2COc2ccc(-c3c(C4CCCCC4)c4ccc5cc4n3CC(=O)NCC/C=C\CCNC5=O)c(F)c2)CC1 [Cpd 15, 17-Cyclohexyl-18-[2-fluoro-4-[2-(4-methanesulfonyl-piperazin-1-yl)-5-(2-oxo-pyrrolidin-1-yl)-benzyloxy]-phenyl]-1,4,11-triaza-tricyclo[11.5.2.0^16,19]icosa-7,13(20),14,16(19),17-pentaene-3,12-dione] | 1.58 | 0.27 | 
COc1ccc(-c2ccc(Cl)cc2)c(-c2ccc3cc(-c4c(C5CCCCC5)c5ccc6cc5n4CC(=O)NCC/C=C\CCNC6=O)ccc3n2)c1 [Cpd 16, 18-[2-(4′-Chloro-4-methoxy-biphenyl-2-yl)-quinolin-6-yl]-17-cyclohexyl-1,4,11-triaza-tricyclo[11.5.2.0^16,19]icosa-7,13(20),14,16(19),17-pentaene-3,12-dione] | 1.44 | 17.6 | 
Cc1nc(C)c(-c2ccc3cc(-c4c(C5CCCCC5)c5ccc6cc5n4CC(=O)NCC/C=C\CCNC6=O)ccc3n2)s1 [Cpd 17, 17-Cyclohexyl-18-[2-(2,4-dimethyl-thiazol-5-yl)-quinolin-6-yl]-1,4,11-triaza-tricyclo[11.5.2.0^16,18]icosa-7,13(20),14,16(19),17-pentaene-3,12-dione] | 2.7 | 5.39 | 
Cc1nc(C)c(-c2ccc3cc(-c4c(C5CCCCC5)c5ccc6cc5n4CC(=O)NCC/C=C\CS(=O)(=O)NC6=O)ccc3n2)s1 [Cpd 18, 17-cyclohexyl-18-[2-(2,4-dimethyl-thiazol-5-yl)-quinolin-6-yl]-10,10-dioxo-10λ^6-thia-1,4,11-triaza-tricyclo[11.5.2.0^16,19]icosa-7,13(20),14,16(19),17-pentaene-3,12-dione] | 0.04 | 12.8 | 
CN1C/C=C\CNC(=O)Cn2c(-c3ccc(OCc4cc(N5CCCC5=O)ccc4N4CCN(S(C)(=O)=O)CC4)cc3F)c(C3CCCCC3)c3ccc(cc32)C(=O)NS1(=O)=O [Cpd 19, 17-cyclohexyl-18-(2-fluoro-4-(2-(4-methanesulfonyl-piperazin-1-yl)-5-(2-oxo-pyrrolidin-1-yl)-benzyloxy)-phenyl)-9-methyl-10,10-dioxo-10λ^6-thia-1,4,9,11-tetraaza-tricyclo[11.5.2.0^16,19]icosa-6,13(20),14,16(19),17-pentaene-3,12-dione] | 0.042 | 2.36 | 
CN1CCCCCNC(=O)Cn2c(-c3ccc(Cl)cc3)c(C3CCCCC3)c3ccc(cc32)C(=O)NS1(=O)=O [Cpd 21, 19-(4-Chloro-phenyl)-18-cyclohexyl-10-methyl-11,11-dioxo-11λ^6-thia-1,4,10,12-tetraaza-tricyclo[12.5.2.017,20]henicosa-14(21),15,17(20),18-tetraene-3,13-dione] | 0.19 | 0.59 | 
CN1C/C=C\CN(C)S(=O)(=O)NC(=O)c2ccc3c(C4CCCCC4)c(-c4ccc(Cl)cc4)n(c3c2)CC1=O [Cpd 23, 18-(4-Chloro-phenyl)-17-cyclohexyl-4,9-dimethyl-10,10-dioxo-10λ^6-thia-1,4,9,11-tetraaza-tricyclo[11.5.2.016,19]icosa-6,13(20),14,16(19),17-pentaene-3,12-dione] | 0.45 | 1.08 | 
CN1CCCCN(C)S(=O)(=O)NC(=O)c2ccc3c(C4CCCCC4)c(-c4ccc(Cl)cc4)n(c3c2)CC1=O [Cpd 24, 18-(4-Chloro-phenyl)-17-cyclohexyl-4,9-dimethyl-10,10-dioxo-10λ^6-thia-1,4,9,11-tetraaza-tricyclo[11.5.2.016,19]icosa-13(20),14,16(19),17-tetraene-3,12-dione] |  | 0.53 | ring closure, isolated yield (amide bond, 15-membered ring): 12%
COc1ccc(-c2c(C3CCCCC3)c3ccc4cc3n2CC(=O)NCCCCN(C)S(=O)(=O)NC4=O)cc1 [Cpd 25, 17-Cyclohexyl-18-(4-methoxy-phenyl)-9-methyl-10,10-dioxo-10λ^6-thia-1,4,9,11-tetraaza-tricyclo[11.5.2.016,19]icosa-13(20),14,16(19),17-tetraene-3,12-dione] | 0.18 | 1.76 | 
COc1ccc(-c2c(C3CCCCC3)c3ccc4cc3n2CC(=O)NCCCCCN(C)S(=O)(=O)NC4=O)cc1 [Cpd 26, 18-Cyclohexyl-19-(4-methoxy-phenyl)-10-methyl-11,11-dioxo-11λ^6-thia-1,4,10,12-tetraaza-tricyclo[12.5.2.017,20]henicosa-14(21),15,17(20),18-tetraene-3,13-dione] |  | 0.35 | ring closure, isolated yield (amide bond, 16-membered ring, CDI, CH3CN, 2 steps): 31%
COc1ccc(-c2c(C3CCCCC3)c3ccc4cc3n2CC(=O)NCCN(C)CCNS(=O)(=O)NC4=O)cc1 [Cpd 27, 18-Cyclohexyl-19-(4-methoxy-phenyl)-7-methyl-11,11-dioxo-11λ^6-thia-1,4,7,10,12-pentaaza-tricyclo[12.5.2.017,20]henicosa-14(21),15,17(20),18-tetraene-3,13-dione] | 0.44 | 3.47 | 
CN1CC=CCCNC(=O)Cn2c(-c3ccoc3)c(C3CCCCC3)c3ccc(cc32)C(=O)NS1(=O)=O [Cpd 29, 18-Cyclohexyl-19-furan-3-yl-10-methyl-11,11-dioxo-11λ^6-thia-1,4,10,12-tetraaza-tricyclo[12.5.2.017,20]henicosa-7,14(21),15,17(20),18-pentaene-3,13-dione] | 0.051 | 0.65 | 
